In article PMC7181660, “A novel specific PERK activator reduces toxicity and extends survival in Huntington's disease models” (Scientific Reports, 2020):
Read-outs that look alike come from different tables or passages of the source.

How the values were obtained:
[1] = system: ATF4; assay: ATF4 protein levels by immunoblot in STHdh^Q7/7 cells; type: cell-based, murine; conditions: high MK-28 concentration
Experimental: STHdh^Q7/7 and STHdh^Q111/111 cells were treated with different concentrations of MK-28. The concentration range was chosen in accordance to previous studies with A4. Cells were lysed with PBS containing 1% Triton X-100, 0.5% Sodium deoxycholate with protease and phosphatase inhibitors cocktails. Cocktail 2 and 3 (Sigma) were added to the lysis buffer for detection of phosphorylated proteins and lysates were incubated on ice for 30 minutes, then centrifuged at 16,000xg for 30 minutes a 4 °C. […] Immunoblotting, detection by ECL and quantitation was done as described previously.

[2] = system: CHOP mRNA; assay: CHOP mRNA by qPCR in STHdh^Q7/7 and STHdh^Q111/111 cells; type: cell-based, murine; conditions: both cell types, qPCR vs GAPDH
Experimental: Total cell RNA was extracted with TRIzol reagent (Invitrogen) according to the manufacturer's instructions. Reverse transcription (RT) was performed with QuantaBio qScript cDNA synthesis kit. Real-time qPCR was carried out using a CFX Connect Real-Time PCR Detection System (BioRad) and the amplifications were done using the SYBR Green PCR Master Mix (pcrbio). Reactions were run in triplicates in three independent experiments. Housekeeping gene GAPDH was used as an internal control to normalize the variability of expression levels.

[3] = target: T1, PERK (EIF2AK3) (Homo sapiens, UniProt Q9NZJ5); assay: In vitro HotSpot kinase assay on isolated PERK; type: biochemical; conditions: isolated PERK, 1 μM ATP; read-out: EC50 of PERK activation
T1 construct: GST; purchased Life technologies, Carlsbad, CA; host or cells: insect cells
T1 sequence (Q9NZJ5 536-1116): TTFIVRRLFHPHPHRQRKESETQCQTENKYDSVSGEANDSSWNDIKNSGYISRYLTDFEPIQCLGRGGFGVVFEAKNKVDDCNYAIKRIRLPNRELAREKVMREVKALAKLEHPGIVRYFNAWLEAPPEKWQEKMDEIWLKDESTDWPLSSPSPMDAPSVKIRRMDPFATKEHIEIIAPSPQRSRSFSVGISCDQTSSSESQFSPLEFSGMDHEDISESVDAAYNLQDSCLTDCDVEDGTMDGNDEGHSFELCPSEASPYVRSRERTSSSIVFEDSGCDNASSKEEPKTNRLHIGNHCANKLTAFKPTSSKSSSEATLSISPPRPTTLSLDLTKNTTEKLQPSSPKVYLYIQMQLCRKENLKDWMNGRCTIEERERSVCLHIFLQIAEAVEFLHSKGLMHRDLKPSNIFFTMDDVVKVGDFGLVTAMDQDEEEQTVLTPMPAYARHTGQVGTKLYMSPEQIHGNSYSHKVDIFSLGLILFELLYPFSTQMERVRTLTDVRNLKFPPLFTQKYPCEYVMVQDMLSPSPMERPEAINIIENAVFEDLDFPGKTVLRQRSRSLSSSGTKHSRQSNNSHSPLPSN
Experimental: (§1) In vitro kinase assays with purified components and full kinase panel analysis was done at Reaction Biology Corp. (Malvern, PA, USA) using the HotSpot Kinase Assay. Reactions were performed for 20 min at room temp. using ^33P-ATP (Specific activity 10 μCi/μl) with 1 μM total ATP, 20 μM substrate and kinases in the nanomolar range in 20 mM Hepes (pH 7.5), 10 mM MgCl2, 1 mM EGTA, 0.02% Brij35, 0.02 mg/ml BSA, 0.1 mM Na3VO4, 2 mM DTT, 1% DMSO and other required factors depending on the assayed kinase.

[4] = target: EIF2AK1 (HRI) (Homo sapiens, UniProt Q9BQI3); assay: In vitro HotSpot kinase assay on HRI; type: biochemical
Experimental: as §1

[5] = Pharmacokinetics and BBB penetration after single IP injection; type: in vivo; conditions: mice, single IP 10 mg/kg
[6] = system: B6 wild type mice; assay: Toxicity study, 2 weeks continuous subcutaneous Alzet pump delivery; type: in vivo; conditions: 6 mg/kg, 2 weeks continuous subcutaneous delivery
Experimental: Alzet pumps model 1004 (Alzet, USA), with a rate of 0.11 µl/hour and 28 days effective compound delivery was used. MK-28 compound was dissolved in 1:1 DMSO/PEG400 and prepared to delivery subcutaneously 6 mg/kg MK-28 for toxicity studies (n = 8) or 1 mg/kg for therapeutic evaluation in R6/2 mice (n = 72). For toxicity studies mice receiving six times the therapeutic dose of MK-28 or vehicle were weighed every two days for two consecutive weeks. […]. Alzet pumps were implanted in 4 weeks old mice and MK-28 was administered at 1 mg/kg with continuous dosing for 28 days. […]

[7] = system: R6/2 HD mouse model; assay: Combined phenotype score (hind limb clasping, ledge, gait, kyphosis); type: in vivo, mice; conditions: R6/2 TG, 1 mg/kg subcutaneous 28 days
Experimental: […]. Measures include hind limb clasping, ledge test, gait and kyphosis. See detailed information in Supplementary methods.
Group # Animals # Treatment Volume bleeding and
Determination of MK-28 levels in the plasma and brain were performed by LC/MS/MS using
generic methods in the bioanalytical lab of WuXi AppTec Co., Ltd. (Shanghai, China). The
MK-28 concentrations were determined in the plasma and whole perfused brain tissues of the
animals following a single IP injection of 10 mg/kg.
Combined phenotype: A method assessing a combination of different disease -phenotypes
was used to evaluate disease progression. Phenotypic evaluation includes hind-limb
clasping, ledge test, gait and kyphosis. Limb clasping: hind-limb clasping behavior was
evaluated and different scores were given based on their performance on a scale from 0 to 3: 0
= normal; 1 = clasps hind-limb s within 30s of being suspended in the air; 2 = cla sps hind-limb s
within 5s, recovering when released after 30s; 3 = clasps hind-limbs within 5s and has difficulty
recovering when released after 30s. Ledge test: The ledge test evaluates motor coordination by
placing mice on the ledge of the cage. Typically, mice will walk along the ledge and attempt
to descend back into the cage. Walking without losing balance is considered normal and
assigned a score of 0. A score of 1 is given if the mouse misse s its footing while walking. If […]

Chain of EIF2AK1 (HRI) (Q9BQI3 whole entry): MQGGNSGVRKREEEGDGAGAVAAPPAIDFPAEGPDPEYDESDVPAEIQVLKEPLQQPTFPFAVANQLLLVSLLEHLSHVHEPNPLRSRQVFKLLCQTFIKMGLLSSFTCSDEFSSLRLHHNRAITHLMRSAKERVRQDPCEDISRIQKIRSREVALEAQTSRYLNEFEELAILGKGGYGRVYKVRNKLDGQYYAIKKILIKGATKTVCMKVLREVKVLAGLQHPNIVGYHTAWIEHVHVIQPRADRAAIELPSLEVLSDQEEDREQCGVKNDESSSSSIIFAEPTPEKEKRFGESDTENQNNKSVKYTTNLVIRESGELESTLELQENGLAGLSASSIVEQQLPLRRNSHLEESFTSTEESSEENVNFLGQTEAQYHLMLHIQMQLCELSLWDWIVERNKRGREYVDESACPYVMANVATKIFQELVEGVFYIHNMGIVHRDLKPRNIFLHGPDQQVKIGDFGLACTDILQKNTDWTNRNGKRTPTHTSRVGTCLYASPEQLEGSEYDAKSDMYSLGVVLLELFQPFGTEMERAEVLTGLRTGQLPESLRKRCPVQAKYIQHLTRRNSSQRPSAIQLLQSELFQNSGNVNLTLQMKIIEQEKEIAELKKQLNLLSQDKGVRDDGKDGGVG

**Q.** What does the source list for `CN(/N=C\c1ccc(O)c(O)c1)c1nc(-c2ccccc2)cc(-c2ccccc2)n1` [MK-28]?
**A.** increase of ATF4 protein levels [1]: up to 2.5 fold; increase of CHOP mRNA levels [2]: up to 10 fold; EC50 [3]: 490 nM; effect on EIF2AK1 (HRI) activity [4]: little or no effect; time of Cmax in plasma after injection [5]: 40 min; time of Cmax in the brain after injection [5]: 40 min; Kp ([5]; mouse, brain, read-out: AUC in the brain as % of that in the plasma): 0.22; Cmax ([5]; mouse, brain, read-out: Cmax in the brain): 57 ng/g; half-life ([5]; mouse, brain, read-out: half-life in the brain): 80 min; Cmax ([5]; mouse, plasma, read-out: Cmax in plasma): 105 ng/mL; half-life ([5]; mouse, plasma, read-out: half-life in plasma): 30 min; toxic effects [6]: No toxic effects; composite phenotype score ([7]; week 6): 3.14 ± 1.41; composite phenotype score ([7]; week 8): 4.4 ± 0.55
